Source: ChEMBL document CHEMBL5465560, “Selectivity Literature for EUbOPEN Chemogenomic Library” (2024)

Legend:
[1] = biological target: T1, Phosphatidylinositol 3-kinase C2 domain-containing subunit gamma (Homo sapiens) (UniProt O75747); assay: Selectivity interaction (KinomeScan (DiscoverX)) EUB0000229b PIK3C2G; conditions: at 10 µM
T1 sequence (whole entry): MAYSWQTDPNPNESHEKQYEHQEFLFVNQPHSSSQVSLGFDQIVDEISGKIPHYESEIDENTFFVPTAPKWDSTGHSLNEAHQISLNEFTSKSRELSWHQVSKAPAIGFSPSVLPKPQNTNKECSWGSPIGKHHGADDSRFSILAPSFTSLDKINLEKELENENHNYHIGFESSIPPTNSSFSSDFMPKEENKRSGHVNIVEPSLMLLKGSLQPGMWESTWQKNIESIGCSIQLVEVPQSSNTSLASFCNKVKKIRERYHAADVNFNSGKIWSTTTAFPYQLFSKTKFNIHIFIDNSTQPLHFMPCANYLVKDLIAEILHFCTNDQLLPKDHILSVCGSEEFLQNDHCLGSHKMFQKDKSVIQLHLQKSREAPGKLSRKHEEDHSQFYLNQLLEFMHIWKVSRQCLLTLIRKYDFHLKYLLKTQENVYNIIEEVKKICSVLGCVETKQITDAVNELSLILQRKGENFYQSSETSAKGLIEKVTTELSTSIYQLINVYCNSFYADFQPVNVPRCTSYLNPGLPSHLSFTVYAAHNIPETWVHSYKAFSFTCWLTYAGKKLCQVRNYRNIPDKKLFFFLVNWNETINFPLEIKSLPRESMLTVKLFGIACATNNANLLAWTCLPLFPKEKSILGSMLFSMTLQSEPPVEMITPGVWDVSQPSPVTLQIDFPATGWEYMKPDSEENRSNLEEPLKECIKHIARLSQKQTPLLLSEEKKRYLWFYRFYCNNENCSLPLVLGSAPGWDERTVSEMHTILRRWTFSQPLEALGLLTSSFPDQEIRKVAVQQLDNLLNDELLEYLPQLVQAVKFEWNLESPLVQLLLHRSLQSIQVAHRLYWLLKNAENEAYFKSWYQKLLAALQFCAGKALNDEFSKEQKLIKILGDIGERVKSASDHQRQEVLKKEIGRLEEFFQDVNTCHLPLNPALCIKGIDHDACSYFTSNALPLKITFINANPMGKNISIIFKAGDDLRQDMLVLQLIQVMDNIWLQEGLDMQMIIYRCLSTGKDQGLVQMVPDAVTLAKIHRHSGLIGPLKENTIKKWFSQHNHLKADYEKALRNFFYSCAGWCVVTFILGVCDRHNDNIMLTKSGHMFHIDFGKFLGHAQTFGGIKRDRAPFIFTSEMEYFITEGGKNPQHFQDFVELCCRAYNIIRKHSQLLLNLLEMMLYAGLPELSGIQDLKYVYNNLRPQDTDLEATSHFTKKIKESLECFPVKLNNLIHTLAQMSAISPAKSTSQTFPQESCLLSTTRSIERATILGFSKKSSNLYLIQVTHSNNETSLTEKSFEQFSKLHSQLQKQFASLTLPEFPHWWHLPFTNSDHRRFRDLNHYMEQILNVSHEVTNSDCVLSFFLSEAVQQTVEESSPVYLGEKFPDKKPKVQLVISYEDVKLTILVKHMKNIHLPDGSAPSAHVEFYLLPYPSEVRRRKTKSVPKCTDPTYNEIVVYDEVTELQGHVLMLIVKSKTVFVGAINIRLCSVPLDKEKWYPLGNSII

[2] = biological target: Fibroblast growth factor receptor 2 (Homo sapiens) (UniProt P21802); assay: Selectivity interaction (KinomeScan (DiscoverX)) EUB0000695a FGFR2; conditions: at 100 nM
[3] = biological target: T2, Serine/threonine-protein kinase STK11 (Homo sapiens) (UniProt Q15831); assay: Selectivity interaction (KinomeScan (DiscoverX)) EUB0000695a STK11; conditions: at 100 nM
T2 sequence (whole entry): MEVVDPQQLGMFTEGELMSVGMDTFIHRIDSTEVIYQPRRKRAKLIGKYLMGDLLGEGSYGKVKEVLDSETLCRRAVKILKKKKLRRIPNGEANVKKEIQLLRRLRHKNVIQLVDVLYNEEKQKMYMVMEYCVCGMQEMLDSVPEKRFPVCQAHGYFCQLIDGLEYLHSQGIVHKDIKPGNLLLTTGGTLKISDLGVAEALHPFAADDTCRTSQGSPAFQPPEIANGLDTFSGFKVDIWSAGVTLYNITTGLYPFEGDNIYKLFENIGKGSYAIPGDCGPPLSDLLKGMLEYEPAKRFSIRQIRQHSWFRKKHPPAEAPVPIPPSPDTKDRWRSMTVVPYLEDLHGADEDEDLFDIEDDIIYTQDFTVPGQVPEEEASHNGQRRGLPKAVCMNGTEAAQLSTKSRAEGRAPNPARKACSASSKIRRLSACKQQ

[4] = biological target: Mitogen-activated protein kinase 4 (Homo sapiens) (UniProt P31152); assay: Selectivity interaction (KinomeScan (DiscoverX)) EUB0000666a MAPK4; conditions: at 10 µM
[5] = biological target: Cyclin-dependent kinase 5 (Homo sapiens, UniProt Q00535); conditions: at 10 µM
[6] = system: eIF-2-alpha kinase GCN2 (Homo sapiens), Q9P2K8 [S808G]; conditions: at 10 µM
[7] = biological target: T3, Serine/threonine-protein kinase 17A (Homo sapiens) (UniProt Q9UEE5); assay: Selectivity interaction (KinomeScan (DiscoverX)) EUB0001049a STK17A; conditions: at 1 µM
T3 sequence (whole entry): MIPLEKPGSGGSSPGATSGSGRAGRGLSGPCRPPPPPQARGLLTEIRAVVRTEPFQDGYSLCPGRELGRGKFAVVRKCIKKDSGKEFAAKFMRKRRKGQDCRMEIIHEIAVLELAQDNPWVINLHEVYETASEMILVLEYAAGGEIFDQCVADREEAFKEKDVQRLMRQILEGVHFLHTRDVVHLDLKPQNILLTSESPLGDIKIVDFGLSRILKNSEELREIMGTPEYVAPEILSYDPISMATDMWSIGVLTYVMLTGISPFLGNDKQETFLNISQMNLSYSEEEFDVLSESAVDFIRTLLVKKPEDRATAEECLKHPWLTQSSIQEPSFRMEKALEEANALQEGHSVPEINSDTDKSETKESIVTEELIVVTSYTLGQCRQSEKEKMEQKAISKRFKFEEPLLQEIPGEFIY

[8] = biological target: Cyclin-dependent kinase 18 (Homo sapiens) (UniProt Q07002); assay: Selectivity interaction (KinomeScan (DiscoverX)) EUB0001619a CDK18; conditions: at 1 µM
[9] = system: Proto-oncogene tyrosine-protein kinase receptor Ret (Homo sapiens), P07949 [V804L]; assay: (§1) Selectivity interaction (KinomeScan (DiscoverX)) EUB0000618a RET; conditions: at 10 µM
[10] = system: Proto-oncogene tyrosine-protein kinase receptor Ret (Homo sapiens), P07949 [V804M]; assay: as §1; conditions: at 10 µM
[11] = biological target: Proto-oncogene tyrosine-protein kinase receptor Ret (Homo sapiens, UniProt P07949); assay: as §1; conditions: at 10 µM
Sequence of Proto-oncogene tyrosine-protein kinase receptor Ret (P07949 whole entry): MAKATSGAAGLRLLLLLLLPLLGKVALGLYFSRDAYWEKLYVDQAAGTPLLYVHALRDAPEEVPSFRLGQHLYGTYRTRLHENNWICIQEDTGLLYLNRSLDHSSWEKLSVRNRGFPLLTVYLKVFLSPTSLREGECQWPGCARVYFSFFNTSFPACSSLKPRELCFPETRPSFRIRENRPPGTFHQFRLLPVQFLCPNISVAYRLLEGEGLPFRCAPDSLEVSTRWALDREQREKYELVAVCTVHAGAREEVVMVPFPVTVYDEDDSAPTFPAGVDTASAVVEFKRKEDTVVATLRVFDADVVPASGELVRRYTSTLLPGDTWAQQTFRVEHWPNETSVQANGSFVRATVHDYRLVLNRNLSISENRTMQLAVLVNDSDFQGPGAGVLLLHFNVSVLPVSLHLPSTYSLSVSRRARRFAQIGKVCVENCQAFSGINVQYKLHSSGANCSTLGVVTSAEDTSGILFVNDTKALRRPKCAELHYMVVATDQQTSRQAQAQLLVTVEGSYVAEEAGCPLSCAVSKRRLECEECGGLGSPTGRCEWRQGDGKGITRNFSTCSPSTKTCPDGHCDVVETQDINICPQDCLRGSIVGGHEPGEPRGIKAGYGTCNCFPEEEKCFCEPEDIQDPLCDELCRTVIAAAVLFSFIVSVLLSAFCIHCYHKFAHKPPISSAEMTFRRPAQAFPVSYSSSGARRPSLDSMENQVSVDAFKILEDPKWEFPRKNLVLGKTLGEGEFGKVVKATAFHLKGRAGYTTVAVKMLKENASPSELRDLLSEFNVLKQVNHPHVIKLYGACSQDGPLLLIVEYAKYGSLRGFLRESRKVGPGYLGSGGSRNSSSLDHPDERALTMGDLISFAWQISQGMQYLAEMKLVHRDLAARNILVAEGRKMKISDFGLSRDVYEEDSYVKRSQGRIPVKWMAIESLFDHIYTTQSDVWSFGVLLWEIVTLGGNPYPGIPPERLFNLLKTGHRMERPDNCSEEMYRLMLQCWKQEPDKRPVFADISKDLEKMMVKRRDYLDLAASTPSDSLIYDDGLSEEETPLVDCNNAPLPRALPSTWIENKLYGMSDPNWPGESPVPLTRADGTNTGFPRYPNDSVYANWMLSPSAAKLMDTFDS

Sequence of eIF-2-alpha kinase GCN2 (Homo sapiens), Q9P2K8 [S808G] (Q9P2K8 whole entry S808G): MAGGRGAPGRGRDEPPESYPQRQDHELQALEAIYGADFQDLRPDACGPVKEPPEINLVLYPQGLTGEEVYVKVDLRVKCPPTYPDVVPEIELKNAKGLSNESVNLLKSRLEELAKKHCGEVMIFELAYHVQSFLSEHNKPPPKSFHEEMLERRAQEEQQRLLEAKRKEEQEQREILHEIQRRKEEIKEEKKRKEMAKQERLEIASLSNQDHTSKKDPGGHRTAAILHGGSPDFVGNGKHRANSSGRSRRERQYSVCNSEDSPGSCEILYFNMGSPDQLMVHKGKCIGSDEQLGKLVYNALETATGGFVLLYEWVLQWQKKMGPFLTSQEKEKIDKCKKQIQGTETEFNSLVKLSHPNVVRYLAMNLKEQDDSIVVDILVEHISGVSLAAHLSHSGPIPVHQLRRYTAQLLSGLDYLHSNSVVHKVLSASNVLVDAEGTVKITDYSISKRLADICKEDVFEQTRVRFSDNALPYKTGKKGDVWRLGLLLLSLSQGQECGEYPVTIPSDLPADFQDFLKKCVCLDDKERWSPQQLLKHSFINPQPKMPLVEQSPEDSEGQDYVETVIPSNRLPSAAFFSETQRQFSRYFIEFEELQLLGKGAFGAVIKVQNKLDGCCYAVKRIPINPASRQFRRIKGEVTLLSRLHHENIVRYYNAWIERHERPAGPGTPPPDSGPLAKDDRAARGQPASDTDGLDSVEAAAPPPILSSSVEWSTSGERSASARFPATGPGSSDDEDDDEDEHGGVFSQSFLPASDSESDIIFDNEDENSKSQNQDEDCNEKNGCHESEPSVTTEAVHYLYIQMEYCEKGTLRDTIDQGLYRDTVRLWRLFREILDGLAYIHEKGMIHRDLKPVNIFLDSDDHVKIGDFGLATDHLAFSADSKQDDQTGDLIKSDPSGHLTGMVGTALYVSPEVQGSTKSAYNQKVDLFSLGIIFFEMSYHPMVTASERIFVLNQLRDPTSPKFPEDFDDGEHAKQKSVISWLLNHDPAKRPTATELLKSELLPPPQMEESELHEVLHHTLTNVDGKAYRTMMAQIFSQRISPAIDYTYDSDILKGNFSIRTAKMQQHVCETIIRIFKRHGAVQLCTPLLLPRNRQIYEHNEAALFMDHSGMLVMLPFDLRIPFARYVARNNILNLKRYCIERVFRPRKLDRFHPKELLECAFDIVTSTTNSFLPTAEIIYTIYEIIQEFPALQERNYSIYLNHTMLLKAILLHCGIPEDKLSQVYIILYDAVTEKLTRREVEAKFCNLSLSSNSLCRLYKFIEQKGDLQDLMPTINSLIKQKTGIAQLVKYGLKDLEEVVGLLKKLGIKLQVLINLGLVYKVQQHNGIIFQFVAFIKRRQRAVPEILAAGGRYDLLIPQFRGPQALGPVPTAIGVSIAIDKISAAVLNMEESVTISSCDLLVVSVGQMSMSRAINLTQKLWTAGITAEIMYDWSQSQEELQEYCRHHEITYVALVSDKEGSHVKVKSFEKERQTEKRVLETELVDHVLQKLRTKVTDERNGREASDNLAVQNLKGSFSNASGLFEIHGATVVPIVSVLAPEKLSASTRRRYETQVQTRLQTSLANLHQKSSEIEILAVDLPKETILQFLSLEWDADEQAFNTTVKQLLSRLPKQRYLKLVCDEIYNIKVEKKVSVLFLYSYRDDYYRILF
Sequence of Fibroblast growth factor receptor 2 (Homo sapiens) (P21802 22-821 limits assumed): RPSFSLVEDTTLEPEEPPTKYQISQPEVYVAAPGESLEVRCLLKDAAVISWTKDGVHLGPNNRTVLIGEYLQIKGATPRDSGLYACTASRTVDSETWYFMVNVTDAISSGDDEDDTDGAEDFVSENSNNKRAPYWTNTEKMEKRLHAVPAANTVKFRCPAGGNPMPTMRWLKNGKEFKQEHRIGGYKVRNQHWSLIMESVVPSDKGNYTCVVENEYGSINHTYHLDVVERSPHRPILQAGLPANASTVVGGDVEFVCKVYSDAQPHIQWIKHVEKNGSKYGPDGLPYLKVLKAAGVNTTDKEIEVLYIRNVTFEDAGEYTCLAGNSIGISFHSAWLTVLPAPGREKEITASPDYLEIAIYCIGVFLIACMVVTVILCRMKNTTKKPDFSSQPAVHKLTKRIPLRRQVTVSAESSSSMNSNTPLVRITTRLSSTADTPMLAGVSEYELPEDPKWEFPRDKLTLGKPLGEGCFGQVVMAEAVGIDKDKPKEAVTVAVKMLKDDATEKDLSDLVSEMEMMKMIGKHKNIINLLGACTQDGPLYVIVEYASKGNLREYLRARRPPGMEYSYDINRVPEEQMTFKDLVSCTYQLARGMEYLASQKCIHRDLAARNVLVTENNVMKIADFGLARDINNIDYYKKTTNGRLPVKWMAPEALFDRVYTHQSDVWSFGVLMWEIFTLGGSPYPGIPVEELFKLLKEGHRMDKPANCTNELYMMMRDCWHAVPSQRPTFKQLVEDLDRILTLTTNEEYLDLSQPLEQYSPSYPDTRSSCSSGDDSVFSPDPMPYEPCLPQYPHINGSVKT
Sequence of Proto-oncogene tyrosine-protein kinase receptor Ret (Homo sapiens), P07949 [V804M] (P07949 whole entry V804M): as the sequence (P07949 whole entry) above, with V804M counted along it
Sequence of Cyclin-dependent kinase 5 (Q00535 whole entry, looked up): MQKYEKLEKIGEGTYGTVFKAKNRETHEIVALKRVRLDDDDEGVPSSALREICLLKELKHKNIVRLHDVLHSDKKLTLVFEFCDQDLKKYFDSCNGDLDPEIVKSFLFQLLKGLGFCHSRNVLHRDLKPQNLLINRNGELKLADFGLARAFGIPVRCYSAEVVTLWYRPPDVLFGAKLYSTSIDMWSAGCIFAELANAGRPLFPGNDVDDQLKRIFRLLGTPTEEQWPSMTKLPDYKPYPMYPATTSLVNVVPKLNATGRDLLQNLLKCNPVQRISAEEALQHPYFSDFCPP
Sequence of Proto-oncogene tyrosine-protein kinase receptor Ret (Homo sapiens), P07949 [V804L] (P07949 whole entry V804L): as the sequence (P07949 whole entry) above, with V804L counted along it
Sequence of Cyclin-dependent kinase 18 (Homo sapiens) (Q07002 whole entry): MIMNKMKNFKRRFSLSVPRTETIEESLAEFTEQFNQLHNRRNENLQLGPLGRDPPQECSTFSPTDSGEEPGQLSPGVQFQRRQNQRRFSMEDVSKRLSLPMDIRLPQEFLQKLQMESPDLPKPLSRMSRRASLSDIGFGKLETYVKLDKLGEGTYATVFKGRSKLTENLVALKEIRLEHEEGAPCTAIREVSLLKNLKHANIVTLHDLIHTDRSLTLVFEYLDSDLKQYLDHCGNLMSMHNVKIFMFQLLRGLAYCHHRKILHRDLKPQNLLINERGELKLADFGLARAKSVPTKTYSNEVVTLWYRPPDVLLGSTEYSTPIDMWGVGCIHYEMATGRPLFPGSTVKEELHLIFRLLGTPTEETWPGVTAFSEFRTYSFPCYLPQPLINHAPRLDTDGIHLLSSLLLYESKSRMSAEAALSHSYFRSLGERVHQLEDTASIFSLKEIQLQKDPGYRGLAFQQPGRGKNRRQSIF
Sequence of Mitogen-activated protein kinase 4 (Homo sapiens) (P31152 whole entry): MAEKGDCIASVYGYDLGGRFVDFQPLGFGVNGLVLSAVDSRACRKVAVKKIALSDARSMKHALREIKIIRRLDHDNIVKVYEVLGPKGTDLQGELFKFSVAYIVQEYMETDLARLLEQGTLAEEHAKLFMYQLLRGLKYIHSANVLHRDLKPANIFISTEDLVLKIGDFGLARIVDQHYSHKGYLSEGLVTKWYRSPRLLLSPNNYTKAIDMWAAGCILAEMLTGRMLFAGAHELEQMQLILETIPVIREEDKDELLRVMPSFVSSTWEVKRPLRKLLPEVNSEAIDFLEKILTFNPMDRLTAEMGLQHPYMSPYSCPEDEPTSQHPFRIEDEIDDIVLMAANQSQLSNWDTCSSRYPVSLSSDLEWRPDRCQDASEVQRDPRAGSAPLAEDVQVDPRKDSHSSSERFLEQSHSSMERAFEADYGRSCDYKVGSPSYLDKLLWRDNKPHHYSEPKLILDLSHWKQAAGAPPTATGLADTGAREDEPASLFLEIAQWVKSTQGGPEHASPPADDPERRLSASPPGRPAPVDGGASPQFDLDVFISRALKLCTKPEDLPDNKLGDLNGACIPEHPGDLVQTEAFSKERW

In the case of COc1cc(N(C)c2ccnc3ccc(C(F)(F)F)cc23)cc(OC)c1OC, the % binding [1] is reported as 75%.

Compound Cc1cc(F)c(C(=O)Nc2cccc(-c3nncn3C(C)C)n2)cc1-n1cnc(C2CC2)c1 has a % of control [2] of 97% and a % of control [3] of 80%.

Work on O=C(NOC[C@H](O)CO)c1ccc(F)c(F)c1Nc1ccc(I)cc1F yielded a % of control [4] of 77%.

Cc1cc([C@@H](C)Nc2ccccc2C(=O)O)c2nc(N3CCOCC3)cc(=O)n2c1 [AZD-6482] gave a % of control [5] of 100% and a % of control [6] of 100%.

COc1cc(Nc2nc(C)cc(-c3cnn4nc(OC)ccc34)n2)cc(C(F)(F)F)c1 was tested, and the % of control [7] was 66%.

For N#Cc1cccc(-c2c[nH]c3ncnc(N4CCOCC4)c23)c1, the % of control [8] was 100%.

Work on O[C@H]1CC[C@H](Nc2ncc3nc(Nc4c(F)cc(F)cc4F)n([C@H]4CCOC4)c3n2)CC1 yielded a % of control [9] of 100%, a % of control [10] of 96% and a % of control [11] of 100%.
